Data: a melting point compilation (Tetko et al.; mined from patent text by program, amines drawn as free bases though some values may be those of a salt)

First: Fc1ccc(C(c2ccncc2)C2CCCCC2)cc1 (stereo not drawn)
Second: COc1ccccc1-c1ccc(Cl)c2c1S(=O)(=O)NC(C1CCCCC1)=N2
The melting point of the first is lower: 78 to 81 °C for the first, 100 to 105 °C for the second.

First: COC(=O)c1cc(O)cc(Cl)c1
Second: O=C(Nc1ccc(Cl)cc1)C(O)c1ccccc1Cl (stereo not drawn)
The melting point of the first is higher: 133 to 135 °C for the first, 120 °C for the second.

First: CC(C)(C)OC(=O)NC1(CCOS(C)(=O)=O)CC1
Second: C=C(C)C(C(=O)OC(C)(C)C)C1(CC(C)C)CCN(CCc2ccccc2)C1=O (stereo not drawn)
The melting point of the first is higher: 88 to 89 °C for the first, 54.5 to 56 °C for the second.

First: CCN(CC)CCCNc1nc2ccccc2n(-c2ccc(Cl)cc2)c1=O
Second: CC(C)(C)OCC1CN(c2ccc3cc(OCc4ccccc4)ccc3c2)C(=O)O1 (stereo not drawn)
The melting point of the first is lower: 123 to 124 °C for the first, 152 °C for the second.

First: COC(=O)C(=C/c1cc(OC)c(OC)c(OC)c1)/C(C(N)=O)=C(/C)c1ccccc1
Second: CCOC(=O)c1cc2c3ccccc3nc(C)n2c1
The melting point of the first is higher: 141 to 143 °C for the first, 113 to 116 °C for the second.

Compared with CC(CC(=O)O)CC(=O)c1ccc(N2CCC(c3ccccc3)CC2)cc1 (stereo not drawn), CC(=NC(=Nc1ccccc1)N1CCOCC1)NCc1ccccc1 is lower in melting point: 134 to 135 °C for the first, 126 to 129 °C for the second.

First: CN1C(=O)OCCc2cc(Nc3ncc(Cl)c(Nc4c(F)cccc4OCCO)n3)ccc21
Second: Cn1ccnc1Sc1ccc(Nc2c(C#N)cnc3cc(-c4ccc(CN5CCNCC5)cc4)ccc23)cc1Cl
The melting point of the first is higher: 199 to 201 °C for the first, 140 to 142 °C for the second.

Compared with O=[N+]([O-])c1ccc2c(c1)CN(Cc1ccccc1)C2, O=C(NCC1Cc2ccccc2C1)OCc1ccccc1 is higher in melting point: 80.5 to 81 °C for the first, 87 to 89 °C for the second.

First: CCOC(=O)Cn1c(=S)c2cc(C)ccc2n(Cc2ccc(Cl)c(Cl)c2)c1=O
Second: COc1ccc2c3cc(C)ccc3n(CC3CCCCC3)c2c1
The melting point of the first is higher: 176 to 177 °C for the first, 136 to 137 °C for the second.

First: Cc1cc(=O)n2cccc(OCC=Cc3ccccc3)c2n1
Second: Nc1cc(-c2ccccn2)cc2nc(-c3ccccc3)nn12
The melting point of the first is lower: 154 to 155 °C for the first, 278 to 280 °C for the second.

Compared with CCc1nn2ccccc2c1-c1n[nH]c(=O)cc1C, CC1(C)SC2C(NC(=O)Cc3ccccc3)C(=O)N2C1c1nnn[nH]1 (stereo not drawn) is lower in melting point: 216 to 217 °C for the first, 168 to 170 °C for the second.

Compared with CC1(C)NC(C[PH](=O)O)C(C)(C)S1 (stereo not drawn), CC(CCCO)C1CCC2C3CCC4CC(O)CCC4(C)C3CC(O)C12C (stereo not drawn) is lower in melting point: 193 to 194 °C for the first, 110 to 116 °C for the second.

First: CC(SC1COC(c2ccc3cc(C(=O)Nc4ccc(C#N)cc4)ccc3c2)OC1)C(O)(Cn1cncn1)c1ccc(F)cc1F (stereo not drawn)
Second: Cc1ccc(C(=O)Nc2ccc(C)c(-c3nc(OC(C)C)nc4c3CNC(=O)N4c3c(F)cccc3F)c2)cc1F
The melting point of the first is lower: 114 °C for the first, 254 to 255 °C for the second.

First: CC1CC(NC(=O)C(F)(F)F)=NN1c1ccc(Cl)c(Cl)c1 (stereo not drawn)
Second: Cn1cc(Cl)c(=O)c(-c2cccc(C(F)(F)F)c2)c1
The melting point of the first is lower: 150 to 152 °C for the first, 170 to 172 °C for the second.

First: N#CC(C(=O)c1ccc(Cl)cc1)=C1CCCN1C(=O)c1ccc(Cl)cc1
Second: O=C(O)C1(c2ccc(Cl)cc2)OCC(c2ccc(F)cc2)(c2ccc(F)cc2)CO1
The melting point of the first is lower: 218 °C for the first, 228 to 230 °C for the second.

Compared with CC(Oc1ccc([N+](=O)[O-])cc1)c1nnc(N=C=O)s1 (stereo not drawn), CN1CCCC1=NC(=O)Nc1ccc([N+](=O)[O-])cc1 is lower in melting point: 215 to 221 °C for the first, 180 to 182 °C for the second.

First: NC(=O)c1ccnc(N2CCN(Cc3ccc(F)cc3)C2=O)c1
Second: COc1ccc2c(c1)C(=O)C(CN1CCC(O)(c3ccc(F)cc3)CC1)CC2 (stereo not drawn)
The melting point of the first is higher: 206 to 208 °C for the first, 193 to 195 °C for the second.

First: N[C@@H](Cc1cccc(OCC(F)(F)C(F)F)c1)[C@H](O)c1ccc(F)cc1 (racemic)
Second: O=C1c2ccccc2C(=O)N1CCc1cccc(C(F)(F)F)c1
The melting point of the first is higher: 77 to 78 °C for the first, 69 to 71 °C for the second.

First: OCC1Cc2c(c(Cl)cc3c(-c4ccccc4F)noc23)O1 (stereo not drawn)
Second: CC(C)(C)C1Cc2cc(N3C[C@H](CO)OC3=O)ccc2N1C(=O)OCc1ccccc1 (stereo partly drawn)
The melting point of the first is lower: 136 to 139 °C for the first, 141 to 149 °C for the second.

First: CN(Cc1coc(C=Cc2ccc(C(F)(F)F)cc2)n1)c1ccc(OCCCn2ccnn2)cc1
Second: CSc1ccc(/C=C(\NC(=O)c2ccc(OCC(C)C)cc2)C(=O)NCCO)cc1
The melting point of the first is lower: 137 to 138 °C for the first, 161 to 163 °C for the second.

First: CC(C)C(NC(=O)OCc1cccnc1)C(=O)NC(Cc1ccccc1)C(O)C(O)C(Cc1ccccc1)NC(=O)C(NC(=O)OCc1cccnc1)C(C)C (stereo not drawn)
Second: CC(=CC(=O)c1ccccc1)NC(Cc1ccc(-c2cccc(CNCC(=O)c3ccccc3)c2)cc1)C(=O)O (stereo not drawn)
The melting point of the first is higher: 202 to 207 °C for the first, 136 °C for the second.

Compared with CCn1c(=O)ccn(-c2ccc(N)cc2)c1=O, CN(CCc1ccc(N)cc1)C1Cc2ccc(N)cc2C1 (stereo not drawn) is lower in melting point: 191 °C for the first, 112 to 114 °C for the second.

First: CCCCc1oc2ccccc2c1C(=O)N(C)Cc1ccc(-c2ccc(OC(Cc3ccccc3)C(=O)O)c(Br)c2)cc1 (stereo not drawn)
Second: CCCCSc1nc(CCC)n(Cc2ccc(-c3ccccc3S(=O)(=O)NC(=O)NCc3ccccc3)cc2)c1C(=O)C(=O)O
The melting point of the first is lower: 79 to 86 °C for the first, 192 °C for the second.

First: CO[C@@H](Cc1ccc(OCCc2nc(-c3cc(C)cc(C)c3)oc2C)c2ccsc12)C(=O)O
Second: COc1ccc(-c2nc(C(C)=O)cn2-c2ccc(OC)cc2)cc1
The melting point of the first is higher: 184 to 185 °C for the first, 116 to 117 °C for the second.

First: O=C(NCC1(c2ccccc2)CCCCC1)Nc1ccc(I)cc1
Second: CNC1=Nc2ccccc2C(O)(c2ccccc2)C1(C)C (stereo not drawn)
The melting point of the first is lower: 184 to 190 °C for the first, 192 to 194 °C for the second.

First: Cc1ccc(S(=O)(=O)OC2CCC(C)C2)cc1 (stereo not drawn)
Second: CNc1cc(C)nc2c(S(=O)(=O)c3ccc(C)cc3)c(SC)nn12
The melting point of the first is lower: < 30 °C for the first, > 230 °C for the second.

Compared with O=C(c1ccccc1)c1cc(Cl)ccc1-n1c(Br)nnc1CN1C(=O)c2ccccc2C1=O, Cc1c(CC(=O)NS(=O)(=O)c2ccccc2)c2cc(OCc3ccc4ccccc4n3)ccc2n1Cc1ccc(Cl)cc1 is lower in melting point: 202 to 204 °C for the first, 194 to 197 °C for the second.

First: O=C(c1ccncc1)[N+]1([O-])CCC(=C2c3ccccc3CCn3ccnc32)CC1 (stereo not drawn)
Second: COc1cnc(-c2cccn3nc(Nc4ccc(C5CCN(C(=O)OC(C)(C)C)CC5)cc4)nc23)cn1
The melting point of the first is lower: 155 to 159 °C for the first, 193 to 195 °C for the second.

First: CC1(C(=O)O)CCC(=O)c2cc(C3CCCCC3)c(Cl)cc21 (stereo not drawn)
Second: CC(C)(NC(=O)C1=C(C(=O)Nc2cc(OC3CCCC3)c(Cl)cc2F)CCCC1)c1ccccc1
The melting point of the first is higher: 227 to 228 °C for the first, 206 to 207 °C for the second.

Compared with C=CCNc1nc(NC(C)C)c2scc(C)c2n1, Cc1cc([N+](=O)[O-])c(C)nc1OC(F)F is lower in melting point: 106 to 107 °C for the first, 48 to 49 °C for the second.

COc1ccc(COc2ncccc2C(=O)O)cc1OC1CC2CCC1C2 (stereo not drawn) and CC#CCOc1ccc(S(=O)(=O)C(C(=O)NO)c2cccc(Cl)c2)cc1 (stereo not drawn) are the same in melting point: 50 °C for the first, 50 °C for the second.

First: CN1Cc2nnnn2-c2ccccc21
Second: CNC(=S)Nc1ccc2c(c1)C(=O)C1(CC1)O2
The melting point of the first is lower: 107 to 110 °C for the first, 191 to 194 °C for the second.

Compared with CCCCCCCCCCCCCCCCCC(CCC(=O)O)(CCC(=O)O)[N+](=O)[O-], O=C(O)CCc1c(C=C2C(=O)Nc3ccc(Br)cc32)[nH]c2c1CCCC2 is higher in melting point: 102 °C for the first, 286 to 289 °C for the second.

Compared with O=C1c2c(O)cccc2C(c2ccccc2)c2cccc(O)c21, N#CN=C(Nc1cccnc1)NC1CC1 is lower in melting point: 193 to 194 °C for the first, 171 to 172 °C for the second.
